In publication PMC8746528, “Novel Substituted Purine Isosteres: Synthesis, Structure-Activity Relationships and Cytotoxic Activity Evaluation” (Molecules, 2021):

Experiments:
[1] = tested on: normal human fibroblasts (WI-38); experiment: MTT cytotoxicity towards normal fibroblasts; format: cell-based; conditions: for Selectivity Index HCT116: SI = IC50 non cancer cell (WI-38)/IC50 cancer cell (HCT116); for Selectivity Index PC-3: SI = IC50 non cancer cell (WI-38)/IC50 cancer cell (PC-3); for cytotoxicity to normal cells in words / IC50: WI-38; for IC50: MTT, normal human fibroblasts
Method: (§1) The human HCT116 colon cancer cell line and PC-3 prostate cancer cell line were obtained from the American Type Cell Culture (ATCC, Bethesda, Md). Both cell lines were grown in 75 cm^2 culture flasks at 37 °C in 5% CO2 using Roswell Park Memorial Institute 1640 medium (RPMI 1640, Gibco) and Dulbecco’s modified Eagle’s medium F/12 (DMEM/F-12, Gibco), respectively, containing 10% fetal bovine serum (FBS, Gibco). To test the inhibitory activities of compounds using a cell-based assay, MTT assay was performed for cell viability, as described previously. Briefly, HCT116 cells were plated at a density of 1500 per well, while PC-3 cells were plated at a density of 750 per well in a 96-well plate. After 24 h, cells were treated with the indicated compounds in a dose-dependent manner for 72 h and 96 h (all tested compounds provided clear solutions). MTT [3-(4,5-dimethylthiazol-2-yl)-2,5-diphenyltetrazolium bromide] (Sigma M-5655) was added at a final concentration of 0.5 mg/mL directly to each well for 4 h at 37 °C. The medium was aspirated, and the blue MTT formazan precipitate was dissolved in dimethyl sulfoxide (DMSO). Absorbance was determined in a Powerwave microplate spectrophotometer (Biotek Instruments, Inc.) at 540 nm. Viable cell numbers were determined by tetrazolium conversion to its formazan dye. The IC50 was calculated by Microsoft Excel equation and confirmed by GraphPad Prism (7.0). Each experiment was performed in triplicate and mean values ± SD are reported.
Figure 1 Dose-response curves for the administration of 14b, 26b, 35b on HCT116, PC-3 and WI-38 cells, as assessed by the MTT assay. Results are expressed as a percentage of controls. Statistical analysis was performed in triplicate determination at p < 0.05.

[2] = tested on: PC-3 prostate cancer cell line; experiment: MTT cell viability assay, PC-3; format: cell-based; conditions: Homo sapiens, treatment 72 h and 96 h, mean ± SD of three experiments
Method: as §1

PC-3 cells [3] = experiment: Annexin V-7AAD apoptosis assay; format: cell-based, human; conditions: for apoptotic nuclei: PC-3, 72 h, compound at its IC50, AnnexinV-7AAD staining, vehicle 3.5%
Method: (§2) For cell cycle analysis, cell culture supernatants and attached cells were collected, centrifuged, washed in PBS, fixed in 50% ethanol and stained with an RNase-containing propidium iodide solution (50 μg/mL) (all reagents from Sigma). For cell apoptosis assay, cells were harvested and stained with Annexin V binding buffer, Annexin V–FITC and 7-AAD (Annexin V-FITC Apoptosis Detection Kit, BD Systems). DNA content was analyzed on a BD Accuri C6 Flow Cytometer using the BD CSampler software (BD Biosciences, USA). Non-apoptotic events were used to calculate the percentage of cells distributed in each phase. A p value < 0.05 was considered to be statistically significant (Student’s t-test).

PC-3 cells [4] = experiment: DNA staining (propidium iodide) and flow cytometric cell cycle analysis; format: cell-based, human; conditions: for Cell cycle phase distribution G0/G1 / Cell cycle phase distribution G2/M / Cell cycle phase distribution S: compound at its IC50
Method: as §2

[5] = tested on: HCT116 colon cancer cell line; experiment: MTT cell viability assay, HCT116; format: cell-based; conditions: Homo sapiens, HCT-116, treatment 72 h and 96 h, mean ± SD of three experiments
Method: as §1

[6] = tested on: a variety of cancer cell lines; design: method as in PMID 27720292; conditions: cited from earlier work
[7] = positive control at 25 nM, PC-3

Row | SMILES | IC50 [2] [nM] | melting point [°C] | IC50 [5] [nM] | Selectivity Index HCT116 [1] | Selectivity Index PC-3 [1] | cytotoxicity to normal cells in words [1] | IC50 [1] [nM] | apoptotic nuclei (PC-3 cells [3]) [%] | Cell cycle phase distribution G0/G1 (PC-3 cells [4]; PC-3, 72 h) | Cell cycle phase distribution G2/M (PC-3 cells [4]; PC-3, 72 h) | Cell cycle phase distribution S (PC-3 cells [4]; PC-3, 72 h) | IC50 values [6] | induction of apoptosis (PC-3 cells [3]; [7]) [%] | G2/M phase blockade (PC-3 cells [4]; [7]) [%] | selectivity index ([1]; normal cell line WI-38 vs both cancer cell lines) | cell-cycle perturbation in words (PC-3 cells [4]; PC-3, 72 h)
1 | Fc1cccc(-c2c[nH]c3c(Nc4ccccc4)ncnc23)c1 [26b, 7-(3-Fluorophenyl)-Ν-phenyl-5H-pyrrolo[3,2-d]pyrimidin-4-amine] | 1950 ± 50 | > 250 | 2050 ± 50 | 8.3 | 8.7 | non-cytotoxic to the normal cell line | 17000 ± 1500 | 17.7 | 54.4 (±1.1) % | 24.9 (±1.6) % | 20.7 (±02.7) % | – | – | – | – | –
2 | CN1CCN(c2nccc3c(-c4ccccc4)c[nH]c23)CC1 [14e, 7-(4-Methylpiperazin-1-yl)-3-phenyl-1H-pyrrolo[2,3-c]pyridine] | 1750 ± 250 | 220 to 221 | 2850 ± 50 | – | – | – | < 10000 | – | – | – | – | – | – | – | – | –
3 | COc1cc(Nc2nccc3c(-c4ccccc4)n[nH]c23)cc(OC)c1OC [3-phenyl-7-(3,4,5-trimethoxyphenyl)aminopyrazolo[3,4-c]pyridine] | – | – | – | – | – | – | – | – | – | – | – | medium to high nM range | – | – | – | –

The next lines start with results.

Row | IC50 [2] [nM] | melting point [°C] | IC50 [5] [nM] | SMILES | Selectivity Index HCT116 [1] | Selectivity Index PC-3 [1] | cytotoxicity to normal cells in words [1] | IC50 [1] [nM] | apoptotic nuclei (PC-3 cells [3]) [%] | Cell cycle phase distribution G0/G1 (PC-3 cells [4]; PC-3, 72 h) | Cell cycle phase distribution G2/M (PC-3 cells [4]; PC-3, 72 h) | Cell cycle phase distribution S (PC-3 cells [4]; PC-3, 72 h) | IC50 values [6] | induction of apoptosis (PC-3 cells [3]; [7]) [%] | G2/M phase blockade (PC-3 cells [4]; [7]) [%] | selectivity index ([1]; normal cell line WI-38 vs both cancer cell lines) | cell-cycle perturbation in words (PC-3 cells [4]; PC-3, 72 h)
4 | 550 ± 50 | 237 to 238 | 2300 ± 200 | Fc1cccc(-c2n[nH]c3c(Nc4ccccc4)ncnc23)c1 [35b, 3-(3-Fluorophenyl)-Ν-phenyl-1H-pyrazolo[4,3-d]pyrimidin-7-amine] | 5.3 | 22.2 | non-cytotoxic to the normal cell line | 12200 ± 1000 | 11.5 | 58.9 (±0.6) % | 24.9 (±2.4) % | 16.3 (±1.8) % | – | – | – | – | –
5 | 25 ± 4 | – | 95 ± 10 | COc1cccc2c1C(=O)c1c(O)c3c(c(O)c1C2=O)C[C@@](O)(C(=O)CO)C[C@@H]3O[C@H]1C[C@H](N)[C@H](O)[C@H](C)O1 [Dox, Doxorubicin, reference compound] | – | – | – | – | – | – | – | – | – | 28 | 58 | – | –
6 | 55 ± 15 | 168 to 169 | 90 ± 10 | Fc1cccc(-c2c[nH]c3c(Nc4ccccc4)nccc23)c1 [14b, 3-(3-Fluorophenyl)-Ν-phenyl-1H-pyrrolo[2,3-c]pyridin-7-amine] | 222 | 363 | practically non-toxic against the normal cell line | 20000 ± 400 | 26.5 | 48.7 (±0.6) % | 30.8 (±0.8) % | 20.5 (±1.4) % | – | – | – | higher than 200 | statistically significant accumulation of PC-3 cells at G2/M phase
